According to patent publication US5725838A, “Radiolabeled D4 receptor ligands” (Resolution Pharmaceuticals, Inc., priority 1996, dated 1998):

How the values were obtained:
[1] = biological target: T1, human D2 receptor (short isoform) (Homo sapiens, UniProt P14416); assay: D2 receptor binding, 3H-spiperone displacement; conditions: membranes of GH4 C1 (rat pituitary) cells stably transfected with human D2 short isoform; 0.25 nM 3H-spiperone; Cheng-Prusoff
T1 construct: expressed in transfected cells; host or cells: GH4 C1 (rat pituitary) cells, stably transfected, membrane preparation
T1 sequence (P14416 1-414 isoform P14416-2): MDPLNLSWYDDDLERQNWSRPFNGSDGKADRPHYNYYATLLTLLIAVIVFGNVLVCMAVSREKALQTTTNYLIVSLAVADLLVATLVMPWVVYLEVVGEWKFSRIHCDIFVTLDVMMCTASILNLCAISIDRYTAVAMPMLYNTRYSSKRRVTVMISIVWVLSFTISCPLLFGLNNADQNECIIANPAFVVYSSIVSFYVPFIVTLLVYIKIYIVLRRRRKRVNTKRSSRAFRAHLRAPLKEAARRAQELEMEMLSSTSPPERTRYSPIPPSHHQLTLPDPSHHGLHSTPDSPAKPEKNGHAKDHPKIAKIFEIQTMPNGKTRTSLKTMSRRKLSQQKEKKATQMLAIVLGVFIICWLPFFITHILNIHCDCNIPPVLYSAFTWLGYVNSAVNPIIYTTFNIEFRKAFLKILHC
Procedure: D2 and D4 receptor-binding affinities of the compounds of Example 3 were evaluated as described in WO95/17400 (incorporated herein by reference) for their ability to reduce binding of ^3 H-spiperone as compared to the reference compound clozapine. The potency of the test compound to reduce ^3 H-spiperone binding directly correlated to its binding affinity for the receptor.
Briefly, the D4 receptor was utilized in the form of membrane preparations obtained from […] cells stably transfected with human D4 receptor (D4.2 sub-type). […] Ready Protein Plus liquid scintillant (5 ml, Beckman) was added and the vials counted by liquid scintillation spectrophotometry (Beckman LSC 6500) after equilibrating for three hours at room temperature to determine total binding (Br).
Non-specific binding for D4 was assayed by incubating membrane homogenate, ^3 H-spiperone and fresh dopamine. Filtrate was counted using the same procedure as in the total binding assay described above to give the non-specific binding value (NSB). Non-specific binding for D2 was similarly assessed, with the exception that (-)-sulpiride was used in place of dopamine.
To assess displacement, membrane homogenate was incubated with ^3 H-spiperone and test compound dissolved in DMSO. Filtrate was counted using the same procedure as in the total binding assay described above, to give the displacement binding value (BD). […]

[2] = biological target: T2, human D4 receptor (D4.2 sub-type) (Homo sapiens, UniProt P21917, DEL265-296); assay: D4 receptor binding, 3H-spiperone displacement; conditions: membranes of cells stably transfected with human D4.2; 0.25 nM 3H-spiperone; Cheng-Prusoff
T2 construct: expressed in transfected cells; host or cells: HEK 298 (so in the source); probably HEK 293), stably transfected, membrane preparation
T2 sequence (P21917 with tags, fused parts or gaps DEL265-296): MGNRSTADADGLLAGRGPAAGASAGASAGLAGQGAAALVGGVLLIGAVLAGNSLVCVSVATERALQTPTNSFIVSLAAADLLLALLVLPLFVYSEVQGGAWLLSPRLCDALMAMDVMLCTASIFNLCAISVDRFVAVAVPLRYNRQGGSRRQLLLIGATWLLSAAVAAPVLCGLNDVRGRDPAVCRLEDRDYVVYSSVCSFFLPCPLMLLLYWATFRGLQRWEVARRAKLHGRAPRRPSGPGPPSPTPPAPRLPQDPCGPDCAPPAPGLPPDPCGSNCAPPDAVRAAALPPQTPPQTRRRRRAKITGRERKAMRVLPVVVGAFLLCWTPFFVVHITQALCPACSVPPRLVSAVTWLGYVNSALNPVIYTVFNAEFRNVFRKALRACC
Procedure: The potency of the test compound to reduce ^3 H-spiperone binding directly correlated to its binding affinity for the receptor.
Individual filter disks were put in scintillation vials (Biovials, Bechman).
Ki was calculated by the Cheng and Prustoff transformation: […]
where [L] is the concentration of ^3 H-spiperone used in the assay and KD is the dissociation constant of ^3 H-spiperone determined independently under the same binding conditions.

Ic1ccc(N2CCN(Cc3c[nH]c4ncccc34)CC2)cc1 [3-[4-(4-iodophenyl)-piperazin-1-yl]methyl-1H-pyrrolo[2,3-b]pyridine]
Ki [1]: 2.37 µM | Ki [2]: 0.00016 µM
